Data taken from patent US10377741B2, “Substituted heteroaryl aldehyde compounds and methods for their use in increasing tissue oxygenation” (Global Blood Therapeutics, Inc., priority 2011, dated 2019).

Legend:
[1] = target: T1, purified Hemoglobin S (HbS) (Homo sapiens, UniProt P68871+P69905, E7V); assay: Modulation of hemoglobin oxygen affinity: oxygen equilibrium curves (HEMOX) in purified HbS; assay type: biochemical, human (homozygous sickle cell patients); details: compound at 30 μM; 25 μM purified HbS, 45 min at 37° C.
T1 construct: HbS was purified by a modified procedure; from tissue; host or cells: blood of homozygous sickle cell patients (CHORI); for the polymerization assay purified by the CRO VIRUSYS
In short: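 HbS from homozygous sickle cell patient blood, 25 μM in HEMOX buffer pH 7.4, incubated 45 min at 37° C with compound (30 μM unless noted). Air-saturated then deoxygenated with N2; p50 from Hill fit; delta p50% = (control p50 − treated p50)/control p50 × 100.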

HbS/A = target: T2, HbS/A (Homo sapiens, UniProt P68871+P69905, E7V); assay: R/T assay (relaxed-to-tense transition under deoxygenated conditions); assay type: biochemical, human (homozygous sickle cell patients); details: 3 μM HbS/A, % R remaining vs no treatment
T2 construct: A mixture of HbS/A was purified from blood; from tissue; host or cells: blood of homozygous sickle cell patients (CHORI)
In short: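 Purified HbS/A (3 μM final) incubated 1 hr at 37° C with compounds (3 μM to 100 μM) in potassium phosphate buffer pH 7.4 with 30 μM DPG, then deoxygenated under N2 with 300–700 nm spectra every 5 min for 2 hours. Delta R is % R state retained versus untreated, by linear regression over all wavelengths.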

purified HBS = target: T3, purified HBS (Homo sapiens, UniProt P68871+P69905, E7V); assay: Polymerization assay (delay time of HbS polymerization); assay type: biochemical, human (homozygous sickle cell patients); details: percent delay (% DT) vs HBS alone; 50 μM purified HBS, 1.8 M potassium phosphate pH 7.4
T3 construct: HbS was purified by a modified procedure; from tissue; host or cells: blood of homozygous sickle cell patients (CHORI); for the polymerization assay purified by the CRO VIRUSYS
Description: Polymerization assays are carried out in vitro using purified HBS exchanged into 1.8 M potassium phosphate buffer at pH 7.4. Using a slightly modified protocol (Antonini and Brunori, 1971), HbS is purified by the CRO VIRUSYS, from blood obtained from homozygous sickle cell patients through the Hemoglobinopathy Center at Children's Hospital Oakland Research Institute (CHORI) with Institutional Review Board approval. Compounds are prepared in 100% DMSO and a desired amount is added to 50 μM of purified HBS at a final DMSO concentration of 0.3%. Final potassium phosphate concentration is adjusted to 1.8 M using a combination of 2.5 M potassium phosphate stock solution and water at pH 7.4. The reaction mixture is incubated for an hour at 37° C. and then transferred into a 24-well plate for deoxygenation in a glove box containing 99.5% nitrogen and 0.5% oxygen. The 24-well plate is not covered and incubated at 4° C. on a plate cooler inside the glove box for one and a half hours. Fifty μL of the reaction mixture is transferred into a 96-well plate and the absorbance at 700 nm is measured every minute for one hour at 37° C. in a plate reader located inside the glove box. A plot of the absorbance against time is fitted using a Boltzman sigmoidal fit and the delay time (from zero to time at half Vmax) is measured. To compare and rank compounds, delay times are expressed as percent delay (% DT), which is defined as the difference in delay times for HBS/compound and HBS alone multiplied by 100 and divided by the delay time for HBS alone.
Compounds listed below have been tested in the polymerization assay. Activity ranges are defined by the number of dagger (†) symbols indicated. † denotes activity ≥40% but ≤80%; †† denotes activity >80% but ≤120%; ††† denotes activity >120% but ≤140%; †††† denotes activity >160%.

whole blood = assay: Whole blood assay: oxygen equilibrium curves of whole blood; assay type: cell-based, human (homozygous sickle cell patients); details: compound at 1000 μM; hematocrit 20%, 1 hour at 37° C.
Description: Oxygen Equilibrium Curves (OEC) of whole blood before and after treatment with different concentrations of substituted benzaldehyde compounds were performed as follows using a HEMOX analyzer (TCS Scientific, New Hope, Pa.). Blood samples from homozygous sickle cell patients were obtained though the Hemoglobinopathy Center at Children's Hospital Oakland Research Institute (CHORI) with Institutional Review Board approval. The hematocrit was adjusted to 20% using autologous plasma and the blood samples were incubated for 1 hour at 37° C. in absence or presence of compounds. 100 μl of these samples were added to 5 mL of Hemox buffer (30 mM TES, 130 mM NaCl, 5 mM KCl, pH=7.4) at 37° C. and then transferred to the Hemox sample chamber. The samples were saturated with oxygen by flushing with compressed air for 10 minutes. The samples were then flushed with pure nitrogen and the respective absorbances of oxy- and deoxy-Hb are recorded as a function of the solution pO2. The oxygen equilibrium data were then fitted to the Hill Model to obtain values for p50. The deoxygenation curves for both whole blood alone (control) and whole blood in the presence of the compound were collected with the TCS software.
Table 5 below lists the delta p50% values where + indicates a delta p50% of between 0 and 29, ++ indicates a delta p50% of between 30 and 50, and +++ indicates a delta p50% of 50 or greater. Unless noted otherwise, the compounds in Table 2 were tested at 1000 μM.

Row | Compound | delta p50% [1] | delta R (HbS/A; compound at 30 μM) | % delta Delay (purified HBS) | delta p50% Values for Whole Blood Assay (whole blood) | delta R (HbS/A; compound at 9 μM)
1 | COc1cc(C=O)c(OCc2cccn3ccnc23)cn1 [Compound 5] | ++ (a delta p50% of between 30 and 50) | ++ (a delta R of between 30 and 50) | † (activity ≥40% but ≤80%) | + (a delta p50% of between 0 and 29) | –
2 | COc1cc(C=O)c(OCc2cccnc2-c2ccn(C)n2)cn1 [Compound 130, 2-methoxy-5-((2-(1-methyl-1H-pyrazol-3-yl)pyridin-3-yl)methoxy)isonicotinaldehyde] | ++ (a delta p50% of between 30 and 50) | – | † (activity ≥40% but ≤80%) | ++ (a delta p50% of between 30 and 50) | + (a delta R of between 0 and 30)
3 | CCn1nccc1-c1ncccc1COc1cnc(OC)cc1C=O [Compound 149, 5-((2-(1-ethyl-1H-pyrazol-5-yl)pyridin-3-yl)methoxy)-2-methoxyisonicotinaldehyde] | +++ (a delta p50% of 50 or greater) | – | † (activity ≥40% but ≤80%) | +++ (a delta p50% of 50 or greater) | + (a delta R of between 0 and 30)
4 | COc1cc(C=O)c(OCc2cccnc2-c2ccnn2C(C)C)cn1 [Compound 150] | +++ (a delta p50% of 50 or greater) | +++ (a delta R of 50 or greater) | ††† (activity >120% but ≤140%) | +++ (a delta p50% of 50 or greater) | –
5 | O=Cc1cc(OC(F)F)ncc1OCc1cccn2ccnc12 [Compound 158, 2-(difluoromethoxy)-5-(imidazo[1,2-a]pyridin-8-ylmethoxy)isonicotinaldehyde] | ++ (a delta p50% of between 30 and 50) | – | † (activity ≥40% but ≤80%) | + (a delta p50% of between 0 and 29) | + (a delta R of between 0 and 30)
6 | COc1cc(C=O)c(OCc2cccnc2-c2ccccc2)cn1 [Compound 159, 2-methoxy-5-((2-phenylpyridin-3-yl)methoxy) isonicotinaldehyde] | +++ (a delta p50% of 50 or greater) | ++ (a delta R of between 30 and 50) | †† (activity >80% but ≤120%) | +++ (a delta p50% of 50 or greater) | –
7 | COc1cc(C=O)c(OCc2ccncc2-c2ccnn2C(C)C)cn1 [Compound 160, 5-((3-(1-isopropyl-1H-pyrazol-5-yl)pyridin-4-yl)methoxy)-2-methoxyisonicotinaldehyde] | +++ (a delta p50% of 50 or greater) | + (a delta R of between 0 and 30) | †† (activity >80% but ≤120%) | +++ (a delta p50% of 50 or greater) | –
8 | COc1cc(C=O)c(OCc2cccnc2-c2ccccc2C)cn1 [Compound 162, 2-methoxy-5-((2-(o-tolyl)pyridin-3-yl)methoxy)isonicotinaldehyde] | +++ (a delta p50% of 50 or greater) | +++ (a delta R of 50 or greater) | †† (activity >80% but ≤120%) | +++ (a delta p50% of 50 or greater) | –
9 | COc1cc(C=O)c(OCc2cccnc2-c2cccnc2OC)cn1 [Compound 163, 2-methoxy-5-((2′-methoxy-[2,3′-bipyridin]-3-yl)methoxy)isonicotinaldehyde] | +++ (a delta p50% of 50 or greater) | ++ (a delta R of between 30 and 50) | †† (activity >80% but ≤120%) | +++ (a delta p50% of 50 or greater) | –
